49 substances from the OligoGym collection can be followed below.

One data set concerns the target UBE2I. Briefly: reporter assay of Huesken 2005. The following applies: siRNA. On the technique in general: Reporter assays use an easily measured gene product as a stand-in for the process of interest.
A further data set has as its target RHOQ. As to the kind of experiment: reporter assay of Huesken 2005. As to conditions: siRNA.

Oligonucleotides are written 5' to 3', each unit as a sugar letter and its base; * is a phosphorothioate linkage, no mark a phosphodiester; rarer units and linkages stand in square brackets, end groups in braces. Plain capitals give the bases only. d = 2'-deoxy (DNA); r = 2'-OH (RNA)
Note: test concentration or dose not given here.

In the data set with UBE2I, “sense rGrCrCrUrArCrArCrGrArUrUrUrArCrUrGrCrCdTdT / antisense rGrGrCrArGrUrArArArUrCrGrUrGrUrArGrGrCdCdT” showed a normalised inhibition (eCFP-eYFP dual reporter) of 67.8%.

In turn, “sense rCrUrUrCrUrArArArUrGrArArCrCrArArArUrAdTdT / antisense rUrArUrUrUrGrGrUrUrCrArUrUrUrArGrArArGdTdT” showed a normalised inhibition (eCFP-eYFP dual reporter) with UBE2I of 88.8%.

The substance “sense rGrGrGrGrArCrArGrUrGrUrGrCrCrUrGrUrCrCdTdT / antisense rGrGrArCrArGrGrCrArCrArCrUrGrUrCrCrCrCdGdA” displayed a normalised inhibition (eCFP-eYFP dual reporter) in the data set with UBE2I of 47.8%. For “sense rArGrCrCrArUrCrArCrArArUrCrArArArCrArGdTdT / antisense rCrUrGrUrUrUrGrArUrUrGrUrGrArUrGrGrCrUdGdG”, the normalised inhibition (eCFP-eYFP dual reporter) with UBE2I came to 60.1%. On the same count and under the same terms, to “sense rCrArCrArArUrCrArArArCrArGrArUrCrCrUrAdTdT / antisense rUrArGrGrArUrCrUrGrUrUrUrGrArUrUrGrUrGdAdT” belongs 87.4%; to “sense rCrArGrArGrGrCrCrUrArCrArCrGrArUrUrUrAdTdT / antisense rUrArArArUrCrGrUrGrUrArGrGrCrCrUrCrUrGdCdT”, 83.8%. On the same count and under the same terms, with “sense rUrGrUrUrUrArArArCrUrArCrGrGrArUrGrCrUdTdT / antisense rArGrCrArUrCrCrGrUrArGrUrUrUrArArArCrAdAdG” the figure was 68.1%; with “sense rArCrCrUrCrArUrGrArArCrUrGrGrGrArGrUrGdTdT / antisense rCrArCrUrCrCrCrArGrUrUrCrArUrGrArGrGrUdTdC”, 58.8%; with “sense rCrArArGrArCrCrCrArGrCrUrCrArArGrCrArGdTdT / antisense rCrUrGrCrUrUrGrArGrCrUrGrGrGrUrCrUrUrGdGdA”, 75.8%. Still for that read-out and setting: with “sense rCrArCrCrCrArUrUrUrGrGrUrUrUrCrGrUrGrGdTdT / antisense rCrCrArCrGrArArArCrCrArArArUrGrGrGrUrGdGdT” the figure was 85.4%; with “sense rCrCrGrArUrGrGrCrArCrGrArUrGrArArCrCrUdTdT / antisense rArGrGrUrUrCrArUrCrGrUrGrCrCrArUrCrGrGdGdA”, 81.8%; with “sense rUrGrUrGrCrCrUrGrUrCrCrArUrCrUrUrArGrAdTdT / antisense rUrCrUrArArGrArUrGrGrArCrArGrGrCrArCrAdCdT”, 76%. The substance “sense rArArArUrGrUrArArArUrUrCrGrArArCrCrArCdTdT / antisense rGrUrGrGrUrUrCrGrArArUrUrUrArCrArUrUrUdTdG” had a normalised inhibition (eCFP-eYFP dual reporter) with UBE2I of 53.9%.

For the substance “sense rCrArGrUrGrUrGrCrCrUrGrUrCrCrArUrCrUrUdTdT / antisense rArArGrArUrGrGrArCrArGrGrCrArCrArCrUrGdTdC”, the normalised inhibition (eCFP-eYFP dual reporter) in the data set with UBE2I is 80.1%. In the data set with UBE2I, “sense rArUrArCrArGrGrArArCrUrUrCrUrArArArUrGdTdT / antisense rCrArUrUrUrArGrArArGrUrUrCrCrUrGrUrArUdTdC” had a normalised inhibition (eCFP-eYFP dual reporter) of 52.1%.

Regarding “sense rArGrCrUrCrArArGrCrArGrArGrGrCrCrUrArCdTdT / antisense rGrUrArGrGrCrCrUrCrUrGrCrUrUrGrArGrCrUdGdG”, the normalised inhibition (eCFP-eYFP dual reporter) with UBE2I was found to be 89.5%.

With “sense rArUrUrCrCrArGrGrArArArGrArArArGrGrGrAdTdT / antisense rUrCrCrCrUrUrUrCrUrUrUrCrCrUrGrGrArArUdGdG”, the normalised inhibition (eCFP-eYFP dual reporter) in the data set with UBE2I worked out at 83.9%. Take “sense rGrArGrGrCrUrUrGrUrUrUrArArArCrUrArCrGdTdT / antisense rCrGrUrArGrUrUrUrArArArCrArArGrCrCrUrCdCdT”: the normalised inhibition (eCFP-eYFP dual reporter) with UBE2I worked out at 73.2%.

With “sense rCrCrUrUrCrGrGrGrGrArCrArGrUrGrUrGrCrCdTdT / antisense rGrGrCrArCrArCrUrGrUrCrCrCrCrGrArArGrGdGdT”, the normalised inhibition (eCFP-eYFP dual reporter) with UBE2I was determined as 51.1%. The same measure, in the same setting: to “sense rUrUrCrArArArGrArUrGrArUrUrArUrCrCrArUdTdT / antisense rArUrGrGrArUrArArUrCrArUrCrUrUrUrGrArAdAdA” belongs 65.2%; to “sense rArGrArUrCrCrUrArUrUrArGrGrArArUrArCrAdTdT / antisense rUrGrUrArUrUrCrCrUrArArUrArGrGrArUrCrUdGdT”, 90.4%. On the same count and under the same terms, to “sense rGrArGrGrArGrGrArCrArArGrGrArCrUrGrGrAdTdT / antisense rUrCrCrArGrUrCrCrUrUrGrUrCrCrUrCrCrUrCdTdA” belongs 70.5%; to “sense rUrCrCrCrGrArUrGrGrCrArCrGrArUrGrArArCdTdT / antisense rGrUrUrCrArUrCrGrUrGrCrCrArUrCrGrGrGrAdTdT”, 48.8%.

Regarding “sense rArArCrCrUrCrArUrGrArArCrUrGrGrGrArGrUdTdT / antisense rArCrUrCrCrCrArGrUrUrCrArUrGrArGrGrUrUdCdA”, the normalised inhibition (eCFP-eYFP dual reporter) in the data set with UBE2I turned out to be 34.5%. As for “sense rUrUrCrArCrCrCrGrArArUrGrUrGrUrArCrCrCdTdT / antisense rGrGrGrUrArCrArCrArUrUrCrGrGrGrUrGrArAdAdT”, in the data set with UBE2I, the normalised inhibition (eCFP-eYFP dual reporter) came to 49.6%. For the substance “sense rArGrArUrGrArUrUrArUrCrCrArUrCrUrUrCrGdTdT / antisense rCrGrArArGrArUrGrGrArUrArArUrCrArUrCrUdTdT”, in the data set with UBE2I, the normalised inhibition (eCFP-eYFP dual reporter) is 52.7%. Same read-out and setting: to “sense rGrUrArArArUrUrCrGrArArCrCrArCrCrArUrUdTdT / antisense rArArUrGrGrUrGrGrUrUrCrGrArArUrUrUrArCdAdT” belongs 89.2%; to “sense rArCrCrCrArUrUrUrGrGrUrUrUrCrGrUrGrGrCdTdT / antisense rGrCrCrArCrGrArArArCrCrArArArUrGrGrGrUdGdG”, 56.9%. On the same count and under the same terms, to “sense rArGrArCrCrArCrCrCrArUrUrUrGrGrUrUrUrCdTdT / antisense rGrArArArCrCrArArArUrGrGrGrUrGrGrUrCrUdTdT” belongs 79.8%; to “sense rCrGrArUrGrArArCrCrUrCrArUrGrArArCrUrGdTdT / antisense rCrArGrUrUrCrArUrGrArGrGrUrUrCrArUrCrGdTdG”, 78.2%. On to “sense rCrCrUrCrArUrGrArArCrUrGrGrGrArGrUrGrCdTdT / antisense rGrCrArCrUrCrCrCrArGrUrUrCrArUrGrArGrGdTdT”, for which the normalised inhibition (eCFP-eYFP dual reporter) with UBE2I came to 72.2%. For “sense rGrArArArGrGrArArUrUrGrUrArUrArArArUrCdTdT / antisense rGrArUrUrUrArUrArCrArArUrUrCrCrUrUrUrCdAdA”, the normalised inhibition (eCFP-eYFP dual reporter) in the data set with RHOQ turned out to be 51.4%.

In turn, “sense rUrGrGrArUrGrUrCrUrUrCrUrUrUrCrUrUrCrCdTdT / antisense rGrGrArArGrArArArGrArArGrArCrArUrCrCrAdAdA” yielded a normalised inhibition (eCFP-eYFP dual reporter) with RHOQ of 68.4%. Still for that read-out and setting: with “sense rUrGrGrArUrCrUrGrCrCrUrUrArUrUrGrCrArUdTdT / antisense rArUrGrCrArArUrArArGrGrCrArGrArUrCrCrAdCdA” the figure was 88.7%. As for “sense rUrGrArCrUrUrGrArGrCrUrUrArUrArGrCrUrAdTdT / antisense rUrArGrCrUrArUrArArGrCrUrCrArArGrUrCrAdTdG”, in the data set with RHOQ, the normalised inhibition (eCFP-eYFP dual reporter) stood at 84.9%. Same read-out and setting: with “sense rCrUrUrArUrGrUrArUrGrCrUrCrArArArUrGrGdTdT / antisense rCrCrArUrUrUrGrArGrCrArUrArCrArUrArArGdGdC” the figure was 44%; with “sense rUrGrCrUrCrArUrArUrCrArGrUrCrArCrArArAdTdT / antisense rUrUrUrGrUrGrArCrUrGrArUrArUrGrArGrCrAdTdT”, 83.6%; with “sense rArCrArCrUrArArArCrUrUrUrUrArUrArCrUrUdTdT / antisense rArArGrUrArUrArArArArGrUrUrUrArGrUrGrUdTdC”, 76.1%.

In the case of “sense rCrUrCrArArArUrGrGrArArUrCrUrUrArUrGrUdTdT / antisense rArCrArUrArArGrArUrUrCrCrArUrUrUrGrArGdCdA”, in the data set with RHOQ, the normalised inhibition (eCFP-eYFP dual reporter) came out at 55.5%. As for “sense rUrGrArArGrArGrUrGrGrArGrArGrArGrUrCrUdTdT / antisense rArGrArCrUrCrUrCrUrCrCrArCrUrCrUrUrCrAdAdT”, the normalised inhibition (eCFP-eYFP dual reporter) with RHOQ stood at 70.7%. “sense rArUrArArUrGrGrArUrGrCrArUrCrArGrArUrAdTdT / antisense rUrArUrCrUrGrArUrGrCrArUrCrCrArUrUrArUdCdT”: the normalised inhibition (eCFP-eYFP dual reporter) with RHOQ was 80.8%.

In the data set with RHOQ, “sense rUrUrGrCrUrGrUrUrGrCrCrCrArArArUrUrArUdTdT / antisense rArUrArArUrUrUrGrGrGrCrArArCrArGrCrArAdGdT” displayed a normalised inhibition (eCFP-eYFP dual reporter) of 83.5%. Take “sense rCrArArArUrCrUrArGrGrArUrGrUrArCrUrGrUdTdT / antisense rArCrArGrUrArCrArUrCrCrUrArGrArUrUrUrGdTdG”: in the data set with RHOQ, the normalised inhibition (eCFP-eYFP dual reporter) worked out at 79.4%. Same read-out and setting: with “sense rCrArArGrArArArUrGrGrUrGrGrUrUrCrArCrAdTdT / antisense rUrGrUrGrArArCrCrArCrCrArUrUrUrCrUrUrGdGdA” the figure was 84.9%; with “sense rCrUrUrCrUrUrUrCrUrUrCrCrArArGrArArArUdTdT / antisense rArUrUrUrCrUrUrGrGrArArGrArArArGrArArGdAdC”, 53.7%; with “sense rUrArUrGrCrUrCrArArArUrGrGrArArUrCrUrUdTdT / antisense rArArGrArUrUrCrCrArUrUrUrGrArGrCrArUrAdCdA”, 54.7%. Still for that read-out and setting: with “sense rArCrArGrArUrUrGrGrGrUrArArUrGrGrArArCdTdT / antisense rGrUrUrCrCrArUrUrArCrCrCrArArUrCrUrGrUdGdC” the figure was 47.1%; with “sense rUrUrUrCrUrUrArUrUrUrArArUrUrUrUrGrGrUdTdT / antisense rArCrCrArArArArUrUrArArArUrArArGrArArAdGdT”, 44.1%. Regarding “sense rArArUrGrCrUrCrArUrArUrCrArGrUrCrArCrAdTdT / antisense rUrGrUrGrArCrUrGrArUrArUrGrArGrCrArUrUdTdA”, in the data set with RHOQ, the normalised inhibition (eCFP-eYFP dual reporter) stood at 76%.
